Reference: patent US9556217B2, “Amphiphilic compounds” (WISCONSIN ALUMNI RESEARCH FOUNDATION, priority 2012, dated 2017)

What was measured:
[1] = molecular target: T1, cytidine-5′-monophosphate-sialic acid transporter (CMP-Sia) (Mus musculus, UniProt Q61420); experiment: CMP-Sia gel filtration integrity; set-up: species or system murine; conditions: detergent at 0.042 wt %; 2 hours at 30° C.
T1 construct: GFP-His (C, cleaved yes); made in house; host or cells: Saccharomyces cerevisiae
T1 sequence (Q61420 1-336): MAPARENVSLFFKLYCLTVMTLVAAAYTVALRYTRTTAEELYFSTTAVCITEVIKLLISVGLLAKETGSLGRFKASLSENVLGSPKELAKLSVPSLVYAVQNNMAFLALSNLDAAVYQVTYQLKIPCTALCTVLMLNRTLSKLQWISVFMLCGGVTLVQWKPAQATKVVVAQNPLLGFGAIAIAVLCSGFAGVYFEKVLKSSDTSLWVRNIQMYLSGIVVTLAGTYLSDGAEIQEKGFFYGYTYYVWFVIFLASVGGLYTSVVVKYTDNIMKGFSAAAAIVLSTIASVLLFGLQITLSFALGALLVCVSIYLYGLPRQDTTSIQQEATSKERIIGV
Procedure: The promising behavior manifested by GDN in terms of the stability of bR and the R. capsulatus superassembly prompted the examining this amphiphile with another membrane protein, the murine cytidine-5′-monophosphate-sialic acid transporter (CMP-Sia) (Newstead et al., Proc. Natl. Acad. Sci. USA 2007, 104, 13936-13941). The protein was initially extracted from S. cereviseae membranes with 1% DDM and isolated in buffer containing 0.03% DDM. The final purified protein (6 mg/mL) was diluted 1:100 into solutions containing DDM or GDN at 0.042 wt % (which corresponds to CMC+0.033 wt % for DDM and CMC+0.04 wt % for GDN). The DDM- and GDN-solubilized CMP-Sia were analyzed by gel filtration before and after incubation for 2 hours at 30° C. (FIG. 5a, b).
Protein integrity was assessed using the procedure reported by Chae and coworkers (Nat. Methods 2010, 7, 1003-1008) using CMP-Sia instead of SQR.
CMP-Sia and GlpG were expressed as fusion proteins with a C-terminal GFP-His tag in Saccharomyces cerevisiae and Escherichia coli respectively. All steps were carried out at 4° C. Membranes containing CMP-Sia and GlpG were resuspended in PBS, 10 mM imidazole pH 8.0, 150 mM NaCl, 10% glycerol and solubilized in 1% DDM for 1 hour with mild agitation. Supernatant containing DDM-solubilized protein was harvested after ultracentrifugation at 100,000 g for 45 min. […]

membrane proteins = experiment: Retention of extracted membrane proteins in soluble form in micelles (summary)
Description: The amphiphiles were thus evaluated as membrane protein solubilizers and stabilizers and they compared very favorably with DDM, a standard reagent in the field. Compared to DDM, for example, one of the evaluated amphiphiles forms micelles at one-tenth of the concentration required for DDM. Compared with DDM, GDN performs similarly for extracting membrane proteins from membranes, and stably retains the proteins in a soluble form within the micelles for substantially longer (>3 weeks) than DDM. Such improved stability (without sacrificing extraction efficiency) is a valuable trait for research tool amphiphiles.
The amphiphiles described herein require lower concentrations than many commonly used surfactants to form stable micelles.

SMILES	CMP-Sia integrity after incubation (gel filtration) [1] [%]	Time until stabilized protein activity began to decay (membrane proteins)	Time proteins are stably retained in soluble form within the micelles (membrane proteins) [weeks]
CCCCCCCCCCCCO[C@@H]1O[C@H](CO)[C@@H](O[C@H]2O[C@H](CO)[C@@H](O)[C@H](O)[C@H]2O)[C@H](O)[C@H]1O [DDM, dodecyl-β-D-maltoside, reference compound]	~50	a few hours or a few days	
C[C@@H]1CC[C@@]2(OC1)O[C@H]1C[C@H]3[C@@H]4CC=C5C[C@@H](OCCC(CO[C@@H]6OC(CO)[C@@H](O[C@H]7OC(CO)[C@@H](O)C(O)C7O)C(O)C6O)CO[C@@H]6OC(CO)[C@@H](O[C@H]7OC(CO)[C@@H](O)C(O)C7O)C(O)C6O)CC[C@]5(C)[C@H]4CC[C@]3(C)[C@@H]1[C@@H]2C (stereo partly shown) [GDN, glyco-diosgenin]	> 90		> 3
